What was measured:
[1] = target: T1, Serine/threonine-protein kinase 17B (Homo sapiens) (UniProt O94768); assay: Inhibition of DRAK2 (unknown origin) assessed as residual activity at 1000 nM by KINOMEscan analysis relative to control
T1 sequence (whole entry): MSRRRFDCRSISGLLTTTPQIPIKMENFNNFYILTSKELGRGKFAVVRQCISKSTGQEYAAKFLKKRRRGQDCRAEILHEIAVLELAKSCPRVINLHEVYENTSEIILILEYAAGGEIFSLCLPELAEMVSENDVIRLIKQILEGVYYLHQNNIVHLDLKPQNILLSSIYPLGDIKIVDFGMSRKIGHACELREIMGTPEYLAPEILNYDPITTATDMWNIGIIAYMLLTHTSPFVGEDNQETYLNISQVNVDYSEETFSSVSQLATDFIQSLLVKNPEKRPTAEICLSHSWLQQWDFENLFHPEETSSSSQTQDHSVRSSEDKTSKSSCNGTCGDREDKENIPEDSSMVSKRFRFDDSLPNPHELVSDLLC

[2] = target: T2, Mitogen-activated protein kinase kinase kinase kinase 3 (Homo sapiens) (UniProt Q8IVH8); assay: Inhibition of MAP4K3 (unknown origin) assessed as residual activity at 1000 nM by KINOMEscan analysis relative to control
T2 sequence (whole entry): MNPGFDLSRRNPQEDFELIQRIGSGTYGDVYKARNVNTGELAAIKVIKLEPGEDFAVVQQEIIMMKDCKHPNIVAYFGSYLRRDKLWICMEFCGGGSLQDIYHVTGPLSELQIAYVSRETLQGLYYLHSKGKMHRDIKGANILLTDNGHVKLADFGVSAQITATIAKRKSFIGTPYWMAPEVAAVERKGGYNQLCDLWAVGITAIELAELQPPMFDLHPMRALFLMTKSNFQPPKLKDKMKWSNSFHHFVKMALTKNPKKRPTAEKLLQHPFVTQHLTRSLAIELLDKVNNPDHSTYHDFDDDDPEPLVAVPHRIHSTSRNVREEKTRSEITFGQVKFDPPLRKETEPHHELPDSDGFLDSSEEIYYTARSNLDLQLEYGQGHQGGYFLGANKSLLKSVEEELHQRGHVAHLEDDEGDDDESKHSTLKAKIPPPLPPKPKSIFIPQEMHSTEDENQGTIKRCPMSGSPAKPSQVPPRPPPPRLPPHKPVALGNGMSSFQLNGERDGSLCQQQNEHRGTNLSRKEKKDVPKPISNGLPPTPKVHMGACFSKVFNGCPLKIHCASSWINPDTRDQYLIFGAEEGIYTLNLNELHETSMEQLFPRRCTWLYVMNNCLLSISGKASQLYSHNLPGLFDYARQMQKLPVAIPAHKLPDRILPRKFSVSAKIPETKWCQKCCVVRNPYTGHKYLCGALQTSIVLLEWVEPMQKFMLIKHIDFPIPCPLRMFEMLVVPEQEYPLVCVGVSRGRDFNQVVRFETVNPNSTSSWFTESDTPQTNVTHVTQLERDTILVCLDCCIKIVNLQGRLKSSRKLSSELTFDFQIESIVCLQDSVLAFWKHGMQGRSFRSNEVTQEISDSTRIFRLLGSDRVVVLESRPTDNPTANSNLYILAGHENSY

[3] = target: Mitogen-activated protein kinase kinase kinase 11 (Homo sapiens) (UniProt Q16584); assay: Inhibition of MLK3 (unknown origin) assessed as residual activity at 1000 nM by KINOMEscan analysis relative to control
Chain of Mitogen-activated protein kinase kinase kinase 11 (Homo sapiens) (Q16584 whole entry, looked up, canonical isoform): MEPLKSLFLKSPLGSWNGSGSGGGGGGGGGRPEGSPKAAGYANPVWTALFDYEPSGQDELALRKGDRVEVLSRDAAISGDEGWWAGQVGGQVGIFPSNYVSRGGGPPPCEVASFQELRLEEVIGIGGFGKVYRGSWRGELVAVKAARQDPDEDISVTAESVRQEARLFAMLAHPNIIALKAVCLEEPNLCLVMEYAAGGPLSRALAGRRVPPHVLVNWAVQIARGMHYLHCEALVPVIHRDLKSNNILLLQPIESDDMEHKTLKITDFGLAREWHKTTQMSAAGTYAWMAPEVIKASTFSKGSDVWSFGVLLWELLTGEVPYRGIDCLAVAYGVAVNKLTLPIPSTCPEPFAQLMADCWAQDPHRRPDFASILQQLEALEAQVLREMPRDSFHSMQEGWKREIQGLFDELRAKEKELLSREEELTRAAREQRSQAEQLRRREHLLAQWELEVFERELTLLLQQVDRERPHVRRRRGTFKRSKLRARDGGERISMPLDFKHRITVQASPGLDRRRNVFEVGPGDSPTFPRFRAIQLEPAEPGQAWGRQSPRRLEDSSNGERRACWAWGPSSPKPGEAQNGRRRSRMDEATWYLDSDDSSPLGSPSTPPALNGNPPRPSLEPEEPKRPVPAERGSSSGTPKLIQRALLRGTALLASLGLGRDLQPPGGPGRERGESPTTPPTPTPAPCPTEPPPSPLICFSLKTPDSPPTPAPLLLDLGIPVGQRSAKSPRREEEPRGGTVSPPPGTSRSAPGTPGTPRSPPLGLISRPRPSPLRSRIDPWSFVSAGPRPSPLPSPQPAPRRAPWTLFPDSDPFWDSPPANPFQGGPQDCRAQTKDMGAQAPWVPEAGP

[4] = tested on: Phosphatidylinositol 4,5-bisphosphate 3-kinase catalytic subunit alpha isoform (Homo sapiens), P42336 [C420R]; assay: Inhibition of PIK3CA C420R mutant (unknown origin) assessed as residual activity at 1000 nM by KINOMEscan analysis relative to control
Chain of Phosphatidylinositol 4,5-bisphosphate 3-kinase catalytic subunit alpha isoform (Homo sapiens), P42336 [C420R] (P42336 whole entry C420R, canonical isoform): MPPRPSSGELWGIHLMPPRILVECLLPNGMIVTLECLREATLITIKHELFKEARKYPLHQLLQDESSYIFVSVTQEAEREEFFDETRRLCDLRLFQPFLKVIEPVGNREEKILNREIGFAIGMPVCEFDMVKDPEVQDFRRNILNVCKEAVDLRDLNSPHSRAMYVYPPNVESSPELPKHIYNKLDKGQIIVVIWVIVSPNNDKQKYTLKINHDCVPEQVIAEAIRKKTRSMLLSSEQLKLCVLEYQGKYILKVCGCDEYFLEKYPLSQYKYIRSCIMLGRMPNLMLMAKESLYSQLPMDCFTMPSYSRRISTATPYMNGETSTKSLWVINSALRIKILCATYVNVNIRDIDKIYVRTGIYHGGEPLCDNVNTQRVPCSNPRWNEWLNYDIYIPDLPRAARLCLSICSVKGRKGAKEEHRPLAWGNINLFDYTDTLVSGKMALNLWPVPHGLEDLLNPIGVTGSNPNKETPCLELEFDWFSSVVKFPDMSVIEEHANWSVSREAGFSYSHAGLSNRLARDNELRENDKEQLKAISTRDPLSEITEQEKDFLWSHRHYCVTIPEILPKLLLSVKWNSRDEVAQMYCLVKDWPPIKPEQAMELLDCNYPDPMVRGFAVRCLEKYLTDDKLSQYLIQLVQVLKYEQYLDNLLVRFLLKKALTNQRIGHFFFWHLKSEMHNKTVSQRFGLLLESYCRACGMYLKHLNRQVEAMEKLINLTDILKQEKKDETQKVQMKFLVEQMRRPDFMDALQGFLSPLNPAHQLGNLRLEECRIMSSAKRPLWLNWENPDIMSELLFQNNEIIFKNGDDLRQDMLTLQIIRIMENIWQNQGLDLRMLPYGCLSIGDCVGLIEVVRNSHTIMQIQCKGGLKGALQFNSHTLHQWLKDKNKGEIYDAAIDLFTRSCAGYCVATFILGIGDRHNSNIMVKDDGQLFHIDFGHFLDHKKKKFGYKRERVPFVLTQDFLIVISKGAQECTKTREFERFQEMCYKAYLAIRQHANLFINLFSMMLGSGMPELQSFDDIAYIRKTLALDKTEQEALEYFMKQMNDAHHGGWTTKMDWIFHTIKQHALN

[5] = target: Proto-oncogene tyrosine-protein kinase ROS (Homo sapiens) (UniProt P08922); assay: Inhibition of ROS1 (unknown origin) assessed as residual activity at 1000 nM by KINOMEscan analysis relative to control
Chain of Proto-oncogene tyrosine-protein kinase ROS (Homo sapiens) (P08922 whole entry): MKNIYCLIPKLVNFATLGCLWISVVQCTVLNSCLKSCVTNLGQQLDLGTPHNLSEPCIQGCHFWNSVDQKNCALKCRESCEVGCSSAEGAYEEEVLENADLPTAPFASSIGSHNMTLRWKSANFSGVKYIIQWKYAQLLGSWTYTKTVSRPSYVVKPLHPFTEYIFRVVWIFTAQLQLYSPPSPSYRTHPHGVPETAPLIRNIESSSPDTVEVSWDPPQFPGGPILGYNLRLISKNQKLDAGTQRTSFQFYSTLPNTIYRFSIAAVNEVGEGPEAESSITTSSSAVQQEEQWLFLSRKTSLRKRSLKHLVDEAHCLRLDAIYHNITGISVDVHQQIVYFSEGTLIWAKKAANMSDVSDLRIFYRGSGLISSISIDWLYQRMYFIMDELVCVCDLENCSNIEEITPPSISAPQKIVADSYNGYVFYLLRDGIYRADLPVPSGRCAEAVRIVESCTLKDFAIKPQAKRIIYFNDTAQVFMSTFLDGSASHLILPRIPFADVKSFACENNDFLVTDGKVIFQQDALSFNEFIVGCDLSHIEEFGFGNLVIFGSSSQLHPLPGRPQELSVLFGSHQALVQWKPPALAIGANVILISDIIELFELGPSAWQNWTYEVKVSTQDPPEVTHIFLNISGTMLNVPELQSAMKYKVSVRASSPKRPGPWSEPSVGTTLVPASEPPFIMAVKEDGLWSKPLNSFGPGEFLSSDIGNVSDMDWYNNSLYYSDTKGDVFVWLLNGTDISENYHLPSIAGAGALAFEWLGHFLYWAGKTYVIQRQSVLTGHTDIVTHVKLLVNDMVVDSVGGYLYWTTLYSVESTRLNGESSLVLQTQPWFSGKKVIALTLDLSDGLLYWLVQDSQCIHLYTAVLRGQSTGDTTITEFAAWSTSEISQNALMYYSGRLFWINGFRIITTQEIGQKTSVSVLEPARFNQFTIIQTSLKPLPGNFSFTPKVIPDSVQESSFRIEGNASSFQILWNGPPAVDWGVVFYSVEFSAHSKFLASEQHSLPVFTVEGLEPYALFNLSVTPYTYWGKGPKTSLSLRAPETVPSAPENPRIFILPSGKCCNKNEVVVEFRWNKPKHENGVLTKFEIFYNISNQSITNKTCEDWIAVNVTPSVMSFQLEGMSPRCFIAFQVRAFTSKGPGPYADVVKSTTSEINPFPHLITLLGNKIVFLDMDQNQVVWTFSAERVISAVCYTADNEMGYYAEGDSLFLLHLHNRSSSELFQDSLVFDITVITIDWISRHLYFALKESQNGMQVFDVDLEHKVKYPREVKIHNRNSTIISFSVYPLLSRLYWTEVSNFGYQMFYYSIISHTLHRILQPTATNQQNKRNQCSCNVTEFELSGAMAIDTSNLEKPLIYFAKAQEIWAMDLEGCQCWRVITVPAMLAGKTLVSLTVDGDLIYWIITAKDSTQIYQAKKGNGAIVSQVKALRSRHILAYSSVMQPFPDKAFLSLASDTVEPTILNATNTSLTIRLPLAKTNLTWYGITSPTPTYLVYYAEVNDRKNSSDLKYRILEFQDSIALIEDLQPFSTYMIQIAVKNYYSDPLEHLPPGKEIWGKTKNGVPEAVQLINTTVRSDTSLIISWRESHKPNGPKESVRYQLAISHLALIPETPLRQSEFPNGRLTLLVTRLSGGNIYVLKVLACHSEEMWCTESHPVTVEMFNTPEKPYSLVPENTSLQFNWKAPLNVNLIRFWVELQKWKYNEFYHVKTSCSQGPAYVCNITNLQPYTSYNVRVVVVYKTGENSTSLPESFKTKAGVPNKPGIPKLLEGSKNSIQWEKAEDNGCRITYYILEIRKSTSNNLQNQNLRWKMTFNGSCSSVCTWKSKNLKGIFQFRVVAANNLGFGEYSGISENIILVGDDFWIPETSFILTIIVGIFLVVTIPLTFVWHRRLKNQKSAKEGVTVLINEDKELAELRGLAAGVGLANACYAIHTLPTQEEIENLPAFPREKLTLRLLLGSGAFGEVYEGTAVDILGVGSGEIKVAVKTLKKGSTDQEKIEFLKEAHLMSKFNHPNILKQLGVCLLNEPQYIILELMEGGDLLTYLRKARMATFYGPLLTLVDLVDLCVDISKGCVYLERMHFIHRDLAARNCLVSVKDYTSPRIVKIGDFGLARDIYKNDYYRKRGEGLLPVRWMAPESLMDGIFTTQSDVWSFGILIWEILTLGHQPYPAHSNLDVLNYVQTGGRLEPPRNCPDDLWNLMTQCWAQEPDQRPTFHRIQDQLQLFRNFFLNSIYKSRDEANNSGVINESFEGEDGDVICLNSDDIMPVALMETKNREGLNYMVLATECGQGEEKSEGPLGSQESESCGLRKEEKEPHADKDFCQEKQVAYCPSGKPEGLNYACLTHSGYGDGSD

[6] = target: Ribosomal protein S6 kinase beta-1 (Homo sapiens) (UniProt P23443); assay: Inhibition of S6K1 (unknown origin) assessed as residual activity at 1000 nM by KINOMEscan analysis relative to control
Chain of Ribosomal protein S6 kinase beta-1 (Homo sapiens) (P23443 whole entry, looked up): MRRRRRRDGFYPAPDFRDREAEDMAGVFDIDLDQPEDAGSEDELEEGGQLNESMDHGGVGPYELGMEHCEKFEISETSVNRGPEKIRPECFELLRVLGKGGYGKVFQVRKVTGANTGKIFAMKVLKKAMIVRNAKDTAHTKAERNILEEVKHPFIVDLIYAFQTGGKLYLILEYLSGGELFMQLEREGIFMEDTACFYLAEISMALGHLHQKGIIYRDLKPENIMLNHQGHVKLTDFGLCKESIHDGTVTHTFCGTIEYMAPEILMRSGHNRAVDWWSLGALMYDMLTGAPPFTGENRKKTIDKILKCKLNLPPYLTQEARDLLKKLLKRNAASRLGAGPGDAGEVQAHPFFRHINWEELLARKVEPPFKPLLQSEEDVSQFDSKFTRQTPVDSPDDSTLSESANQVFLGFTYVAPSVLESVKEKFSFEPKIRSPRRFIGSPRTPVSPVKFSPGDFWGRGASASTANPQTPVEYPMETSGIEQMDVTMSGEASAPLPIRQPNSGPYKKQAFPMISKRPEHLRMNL

[7] = target: T3, Tyrosine-protein kinase receptor TYRO3 (Homo sapiens) (UniProt Q06418); assay: Inhibition of TYRO3 (unknown origin) assessed as residual activity at 1000 nM by KINOMEscan analysis relative to control
T3 sequence (whole entry): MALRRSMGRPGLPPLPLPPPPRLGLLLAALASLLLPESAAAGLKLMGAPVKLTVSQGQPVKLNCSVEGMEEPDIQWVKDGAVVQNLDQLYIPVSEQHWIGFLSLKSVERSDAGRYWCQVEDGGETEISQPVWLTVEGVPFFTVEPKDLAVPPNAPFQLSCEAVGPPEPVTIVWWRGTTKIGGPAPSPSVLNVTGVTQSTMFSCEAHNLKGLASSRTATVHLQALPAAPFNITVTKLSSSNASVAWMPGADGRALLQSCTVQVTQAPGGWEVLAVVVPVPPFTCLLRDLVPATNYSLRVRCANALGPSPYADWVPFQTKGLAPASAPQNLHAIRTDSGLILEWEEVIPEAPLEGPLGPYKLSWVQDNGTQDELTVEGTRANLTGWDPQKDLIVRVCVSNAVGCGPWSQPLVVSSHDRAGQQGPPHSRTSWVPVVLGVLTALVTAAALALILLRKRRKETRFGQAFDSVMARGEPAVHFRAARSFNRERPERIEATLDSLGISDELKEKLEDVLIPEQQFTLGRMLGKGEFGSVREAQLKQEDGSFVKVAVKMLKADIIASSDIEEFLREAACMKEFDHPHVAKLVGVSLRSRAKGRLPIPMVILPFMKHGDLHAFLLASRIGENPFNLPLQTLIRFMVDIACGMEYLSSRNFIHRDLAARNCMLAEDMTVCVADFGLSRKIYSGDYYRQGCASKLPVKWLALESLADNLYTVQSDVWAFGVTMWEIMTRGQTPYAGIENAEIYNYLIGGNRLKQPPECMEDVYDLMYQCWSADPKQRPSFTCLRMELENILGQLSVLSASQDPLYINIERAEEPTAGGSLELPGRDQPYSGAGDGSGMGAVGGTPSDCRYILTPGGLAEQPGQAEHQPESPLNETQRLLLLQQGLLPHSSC

Row | SMILES | Activity [1] [%] | Activity [2] [%] | Activity [3] [%] | Activity [4] [%] | Activity [5] [%] | Activity [6] [%] | Activity [7] [%]
1 | COc1cc2nc(C)nc(N[C@H](C)c3cccc(-c4cn[nH]c4)c3)c2cc1OC | 67 | 90 | 100 | 82 | 100 | 78 | 66
2 | COc1cc2ncnc(N[C@H](C)c3cccc4ccccc34)c2cc1OC | 100 | 100 | 100 | 82 | 90 | 91 | 90

Source: ChEMBL document CHEMBL5678818, “Discovery of potent SOS1 inhibitors that block RAS activation via disruption of the RAS-SOS1 interaction” (Proc Natl Acad Sci U S A, 2019)
